# How the values were obtained:
# [1] = system: reticulocytes; test: Effect on reticulocytes of normal mice; format: in vivo, Balb/c mice; set-up: Reticulocytes (RETIC), average: unit not given here; settings: 10 mg/kg p.o., once; 72 h after administration
# How it was run: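 Male Balb/c mice (n = 6/group) received a single oral dose of 10 mg/kg. Comparators were oral FG-4592 at 10 or 50 mg/kg and i.p. rhEPO at 100 IU/kg. At 72 h, orbital blood was collected into EDTA-K2 and reticulocytes were counted on an automatic blood cell analyzer.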
# [2] = target: PHD1 (Homo sapiens (Human), UniProt Q96KS0); test: PHD enzyme assay (Eu-VBC TR-fluorescence); format: biochemical
# Procedure: (§1) VHL/elongin B/elongin C were constructed, expressed and purified, and VHL was labeled. PHD1, PHD2 and PHD3 were constructed, expressed and purified. VBC protein was labeled with DELFIA Eu-Labeling Kit. A NeutrAvidin 96-well plate was blocked after the addition of 200 μL Blocker Casein to each well, followed by incubation for 30 min. Each well was washed 3 times by adding 200 μL of washing buffer each time. A 200 nM HIF-1a 556-574 solution was prepared with washing buffer, and 100 μL of the solution was added to each well, followed by incubation for 60 min. Each well was washed 3 times by adding 200 μL of washing buffer each time. A 1 mM Biotin solution was prepared with Blocker Casein, and 100 μL of the solution was added to each well, followed by incubation for 30 min. Each well was washed 3 times by adding 200 μL of washing buffer each time. A 20× compound solution was prepared with PHD reaction buffer, with the final concentration of DMSO being 1%. PHD solutions were prepared with PHD reaction buffer, and the concentrations of PHD1, 2, and 3 solutions were 10 ng/μL, 5 ng/μL, and 15 ng/μL, respectively. 95 μL of the PHD solution was added to each compound well, followed by the addition of 5 μL of the compound solution, 95 μL of the PHD solution was added to each full active well, followed by the addition of 5 μL of the PHD reaction buffer; and 100 μL of the PHD reaction buffer was added to each blank well. After mixing homogeneously, the wells were incubated for 60 min. Each well was washed 3 times by adding 200 μL of washing buffer each time A 1 ng/μL Eu-VBC solution was prepared with Eu-VBC binding buffer, and 100 μL of the solution was added to each well, followed by incubation for 60 min. Each well was washed 6 times by adding 200 μL DELFIA Wash Concentrate each time. 100 μL DELFIA Enhancement Solution was added to each well. A microplate reader was used to read TR-Fluorescence at Ex340 and Em615. The flurescence of the sample wells was recorded as FLUsample, the flurescence of the full active wells was recorded as FLU100%, and the flurescence of the blank well was recorded as FLU0%.
# [3] = target: PHD3 (Homo sapiens (Human), UniProt Q9H6Z9); test: PHD enzyme assay (Eu-VBC TR-fluorescence); format: biochemical
# Procedure: as §1
# PHD1, sequence (Q96KS0 whole entry): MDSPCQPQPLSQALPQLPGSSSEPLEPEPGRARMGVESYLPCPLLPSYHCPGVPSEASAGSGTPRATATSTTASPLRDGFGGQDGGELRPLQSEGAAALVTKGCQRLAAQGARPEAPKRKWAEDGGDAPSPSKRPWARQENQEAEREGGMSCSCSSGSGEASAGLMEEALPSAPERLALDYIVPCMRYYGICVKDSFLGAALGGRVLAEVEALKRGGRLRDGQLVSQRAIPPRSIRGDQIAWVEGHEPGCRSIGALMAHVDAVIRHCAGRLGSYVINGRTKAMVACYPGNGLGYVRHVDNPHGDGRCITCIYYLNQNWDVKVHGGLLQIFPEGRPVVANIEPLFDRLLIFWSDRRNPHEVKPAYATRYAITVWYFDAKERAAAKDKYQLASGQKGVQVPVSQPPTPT
# PHD3, sequence (Q9H6Z9 whole entry): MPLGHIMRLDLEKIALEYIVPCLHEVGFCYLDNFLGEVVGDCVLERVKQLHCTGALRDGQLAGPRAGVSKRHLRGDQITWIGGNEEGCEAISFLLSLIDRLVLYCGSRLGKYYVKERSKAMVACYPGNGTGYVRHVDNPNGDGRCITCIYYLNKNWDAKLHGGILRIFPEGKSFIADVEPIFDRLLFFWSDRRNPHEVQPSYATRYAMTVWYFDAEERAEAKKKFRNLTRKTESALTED
Structure (SMILES),"Reticulocytes (RETIC), average [1]",Effect on PHD1 compared with compounds of Comparative Examples 1-3 [2],IC50 [2] [nM],Effect on PHD3 compared with compounds of Comparative Examples 1-3 [3],IC50 [3] [nM]
"O=C(O)CNC(=O)c1nc(Cl)c2nc(Oc3ccccc3)ccc2c1O [Link-118, 2-(2-phenoxy-5-hydroxy-8-chloro-1,7-naphthyridine-6-formamido) Acetic Acid]",8.62,better effect,46.9,better effect,72.8
"O=C(O)CNC(=O)c1nc(Br)c2nc(Oc3ccccc3)ccc2c1O [Link-121, 2-(2-phenoxy-5-hydroxy-8-bromo-1,7-naphthyridine-6-formamido) Acetic Acid]",7.28,better effect,40.3,better effect,95.6
